Tests used:
[1] = biological target: PDHK2 (Homo sapiens (Human), UniProt Q15119); test: Biochemical activity testing of PDHK2: PDC inactivation assay; details: human rec PDHK2, PDC from porcine heart, ATP 5 μM; read-out: IC50 PDHK2 (enzyme assay)
From the text: Biochemical Activity Testing of PDHK2: PDC Inactivation Assay
The biochemical activity assay for PDHK2 is based on the inactivation of PDC through phosphorylation by PDHK2. The assay is run in two steps: the enzymatic PDHK2 reaction in which isolated PDC is phosphorylated by PDHK2 with ATP as co-substrate and the PDC activity assay in which pyruvate and NAD are converted to acetyl-CoA and NADH. The PDC activity correlates to the increase in NADH and thereby is detectable directly via the increasing fluorescence signal (Exc 340 nm, Em 450 nm). Inhibition of PDHK2 results in a lower phosphorylation status and thereby a less decrease in activity of PDC and a stronger increase in NADH fluorescence signal.
The PDC inactivation assay is performed in Greiner 384-well microtiter plates and is used for high throughput screen. 4 μl of PDHK2 (human, rec, Carna Bioscience, 10 ng/μl-137 nM final concentration) and PDC (isolated from porcine heart, Sigma-Aldrich, 20 mU/ml final concentration) are incubated in the absence or presence of the test compound (10 dilution concentrations) for 30 min at room temperature in kinase buffer (15 mM potassium phosphate buffer, pH 7.0, 60 mM KCl, 1.5 mM DTT, 2.5 mM MgCl2, 0.0125% (w/v) BSA, 0.125% Pluronic F-68). The kinase reaction is started by the addition of 4 μl ATP substrate solution (fc 5 μM in kinase buffer). After 30 min incubation at 37° C. 40 μl of PDC reaction solution (100 mM Tris/HCl, pH 7.8, 0.5 mM EDTA, 1 mM MgCl2, 50 mM NaF, 0.25 mM Coenzyme A, 5 mM pyruvate, 1 mM NAD, 5 mM DTT, 1 mM thiamine pyrophosphate) is added. The first fluorescence measurement is performed on a Perkin Elmer Envision (Exc 340 nm, Em 450 nm). The reaction is incubated for 45 min at room temperature. Afterwards a second fluorescence measurement is performed and the PDC activity is calculated by the difference between both measurements. As full value for the PDHK2 assay the inhibitor-free PDHK2 reaction is used. The pharmacological zero value used is DCA (Sigma-Aldrich) in a final concentration of 3 mM. The inhibitory values (IC50) were determined using either the program Symyx Assay Explorer® or Condosseo® from GeneData.

[2] = biological target: human PDHK2 (12-407) (Homo sapiens (Human), UniProt Q15119); test: Isothermal titration calorimetry (ITC) binding; details: 30° C., pH 7.5
Description: Isothermal Titration Calorimetry
ITC measurements were performed with a VP-ITC micro calorimeter (Microcal, LLC/GE Healthcare Bio-Sciences AB, Uppsala, Sweden). In general titrations were performed by titrating the protein (50 μM) to the test compound (5 μM) in 12 μl injections. All binding experiments were carried out at 30° C. In general the test compounds were diluted form DMSO stock solutions into the measurement buffer with a maximum final concentration of 1% DMSO. The measurement buffer was 20 mM HEPES, 135 mM KCl, 1 mM TCEP, 2 mM MgCl2, 15 mM NaH2PO4, pH 7.5. The human PDHK2 (12-407) was produced in E. coli as his-tagged protein and purified by affinity chromatography. The tag was removed by side specific proteolysis. Before titration the protein buffer was changed to the measurement buffer containing the same DMSO concentration as the test compound dilution. ITC data analysis was performed using Origin 7 calorimetry software from the same supplier. For most measurements a binding model of one binding site was assumed. According to the applied mathematical model it is possible to calculate the binding constant (KA), the observed binding enthalpy (ΔH^obs) as well as the stoichiometry (N) of the formed complex. Preceding analysis the raw data was corrected for the heats of dilution by extrapolating from the saturation value from the end of titration. In order to allow for direct comparison between the respective experimental series and protein preparations the protein concentration was corrected by referencing titrations to a well behaved standard inhibitor. The apparent stoichiometry values defined the fraction of binding competent protein and compensated for relative errors in protein concentration measurements. This corrected protein concentration was used to set up ITC experiment series with test compounds. Any deviations from ideal 1:1 stoichiometry observed here were attributed to errors in compound concentration. This nominal compound concentration was corrected as well to achieve 1:1 stoichiometry in the fit.

[3] = tested on: PDH-E1alpha (pSer300) in HEK293T cells; test: Cellular immunofluorescence assay, PDH-E1alpha (pSer300); type: cell-based; details: Homo sapiens, HEK-293T, 5 hours incubation, read-out: IC50 (cell data)
Description: Cellular Assay for Determination of Compound Activities
Compound activities were determined in a cellular immunofluorescence assay. Human HEK293T cells were seeded into black 384-well plates with clear bottom and grown overnight.
Next day, test compounds were added to the wells and the plates incubated for 5 hours. Following this, cells were fixed with formaldehyde, permeabilised and blocked. The primary antibody, Anti-PDH-E1alpha (pSer300), AP1064 (Merck Millipore) was added and incubated overnight in the plate wells. Next, cells were washed and the seconday antibody, Alexa Fluor 488, goat anti-rabbit ab (A-11008, Invitrogen) was added together with Hoechst 33258 (H3569, Invitrogen) and incubated for 1 hour in the plate wells. Finally, cells were washed and the plates were measured on the laser scanning cytometer acumen hci (TTpLabtech).
The raw data were normalized against a pharmacological inhibitor control and dose response curves were generated by plotting the percent effect values using the software package Genedata screener (Genedata).

SMILES | IC50 [1] | Kd [2] | IC50 [3]
CC(C)(c1nnc(C2CCCCC2)[nH]1)C1CCN(C(=O)[C@@](C)(O)C(F)(F)F)CC1 [Compound A4, (R)-1-{4-[1-(5-Cyclohexyl-4H-[1,2,4]triazol-3-yl)-1-methyl-ethyl]-piperidin-1-yl}-3,3,3-trifluoro-2-hydroxy-2-methyl-propan-1-one] | 1400 nM | 290 nM | 3900 nM
Cc1ccc(-c2nnc(C3([C@H]4CCN(C(=O)[C@@](C)(O)C(F)(F)F)C[C@H]4C)CC3)o2)cc1 [Compound A25, (R)-3,3,3-Trifluoro-2-hydroxy-2-methyl-1-{(3S,4S)-3-methyl-4-[1-(5-p-tolyl-[1,3,4]oxadiazol-2-yl)-cyclopropyl]-piperidin-1-yl}-propan-1-one] | 100 nM | 4.1 nM | 30 nM
COc1ccc(-c2nnc(C3([C@H]4CCN(C(=O)[C@@](C)(O)C(F)(F)F)C[C@H]4C)CC3)[nH]2)cc1 [Compound A28, (R)-3,3,3-Trifluoro-2-hydroxy-1-((3S,4S)-4-{1-[5-(4-methoxy-phenyl)-4H-[1,2,4]triazol-3-yl]-cyclopropyl}-3-methyl-piperidin-1-yl)-2-methyl-propan-1-one] | 88 nM | 2.5 nM | 12 nM
C[C@H]1CN(C(=O)[C@@](C)(O)C(F)(F)F)CC[C@H]1C1(c2nnc(-c3ccccc3)[nH]2)CC1 [Compound A13, (R)-3,3,3-Trifluoro-2-hydroxy-2-methyl-1-{(3R,4R)-3-methyl-4-[1-(5-phenyl-4H-[1,2,4]triazol-3-yl)-cyclopropyl]-piperidin-1-yl}-propan-1-one] | 6600 nM |  | 
Cc1ccc(-c2nnc(C3([C@H]4CCN(C(=O)[C@@](C)(O)C(F)(F)F)C[C@H]4C)CC3)[nH]2)cc1 [Compound A22, (R)-3,3,3-Trifluoro-2-hydroxy-2-methyl-1-{(3S,4S)-3-methyl-4-[1-(5-p-tolyl-4H-[1,2,4]triazol-3-yl)-cyclopropyl]-piperidin-1-yl}-propan-1-one] | 90 nM | 2.6 nM | 16 nM
C[C@@H]1CN(C(=O)[C@@](C)(O)C(F)(F)F)CC[C@@H]1C1(c2nnc(-c3ccc(Cl)cc3)[nH]2)CC1 [Compound A34, (R)-1-((3S,4S)-4-{1-[5-(4-Chloro-phenyl)-4H-[1,2,4]triazol-3-yl]-cyclopropyl}-3-methyl-piperidin-1-yl)-3,3,3-trifluoro-2-hydroxy-2-methyl-propan-1-one] | 180 nM | 2.8 nM | 19 nM
C[C@H]1CN(C(=O)[C@@](C)(O)C(F)(F)F)CC[C@H]1C1(c2nnc(-c3ccccc3)o2)CC1 (stereo in doubt) [Compound A15, (R)-3,3,3-Trifluoro-2-hydroxy-2-methyl-1-{(S)-3-methyl-4-[1-(5-phenyl-[1,3,4]oxadiazol-2-yl)-cyclopropyl]-piperidin-1-yl}-propan-1-one] | 11000 nM |  | 7300 nM
COc1ccc(-c2nnc(C3([C@@H]4CCN(C(=O)[C@@](C)(O)C(F)(F)F)C[C@@H]4C)CC3)[nH]2)cc1 [Compound A27, (R)-3,3,3-Trifluoro-2-hydroxy-1-((3R,4R)-4-{1-[5-(4-methoxy-phenyl)-4H-[1,2,4]triazol-3-yl]-cyclopropyl}-3-methyl-piperidin-1-yl)-2-methyl-propan-1-one] | 13000 nM |  | 
C[C@@](O)(C(=O)N1CCC(C2(c3nnc(-c4ccc(F)cc4)[nH]3)CC2)CC1)C(F)(F)F [Compound A2, (R)-3,3,3-Trifluoro-1-{4-{1-[5-(4-fluorophenyl)-4H-[1,2,4]triazol-3-yl]-cyclopropyl}-piperidin-1-yl}-2-hydroxy-2-methyl-propan-1-one] |  | 180 nM | 2000 nM
C[C@H]1CN(C(=O)[C@@](C)(O)C(F)(F)F)CC[C@H]1C1(c2nnc(-c3ccc(F)cc3)[nH]2)CC1 [Compound A18, (R)-3,3,3-Trifluoro-1-((3R,4R)-4-{1-[5-(4-fluoro-phenyl)-4H-[1,2,4]triazol-3-yl]-cyclopropyl}-3-methyl-piperidin-1-yl)-2-hydroxy-2-methyl-propan-1-one] | 2600 nM |  | 
Cc1ccc(-c2nnc(C3([C@@H]4CCN(C(=O)[C@@](C)(O)C(F)(F)F)C[C@@H]4C)CC3)[nH]2)cc1 [Compound A21, (R)-3,3,3-Trifluoro-2-hydroxy-2-methyl-1-{(3R,4R)-3-methyl-4-[1-(5-p-tolyl-4H-[1,2,4]triazol-3-yl)-cyclopropyl]-piperidin-1-yl}-propan-1-one] | 4900 nM |  | 
C[C@H]1CN(C(=O)[C@@](C)(O)C(F)(F)F)CC[C@H]1C1(c2nnc(-c3ccc(Cl)cc3)o2)CC1 [Compound A36, (R)-1-((3R,4R)-4-{1-[5-(4-Chloro-phenyl)-[1,3,4]oxadiazol-2-yl]-cyclopropyl}-3-methyl-piperidin-1-yl)-3,3,3-trifluoro-2-hydroxy-2-methyl-propan-1-one] | 8200 nM |  | 
Cc1ccc(-c2nnc(C3([C@@H]4CCN(C(=O)[C@@](C)(O)C(F)(F)F)C[C@@H]4C)CC3)o2)cc1 [Compound A24, (R)-3,3,3-Trifluoro-2-hydroxy-2-methyl-1-{(3R,4R)-3-methyl-4-[1-(5-p-tolyl-[1,3,4]oxadiazol-2-yl)-cyclopropyl]-piperidin-1-yl}-propan-1-one] | 7300 nM |  | 
COc1ccc(-c2nnc(C3([C@@H]4CCN(C(=O)[C@@](C)(O)C(F)(F)F)C[C@@H]4C)CC3)[nH]2)cn1 [Compound A39, (R)-3,3,3-Trifluoro-2-hydroxy-1-((3R,4R)-4-{1-[5-(6-methoxy-pyridin-3-yl)-4H-[1,2,4]triazol-3-yl]-cyclopropyl}-3-methyl-piperidin-1-yl)-2-methyl-propan-1-one] | 6000 nM |  | 
C[C@H]1CN(C(=O)[C@@](C)(O)C(F)(F)F)CC[C@H]1C1(c2nnc(-c3ccc(Cl)cc3)[nH]2)CC1 [Compound A33, (R)-1-((3R,4R)-4-{1-[5-(4-Chloro-phenyl)-4H-[1,2,4]triazol-3-yl]-cyclopropyl}-3-methyl-piperidin-1-yl)-3,3,3-trifluoro-2-hydroxy-2-methyl-propan-1-one] | 18000 nM |  | 
COc1ccc(-c2nnc(C3([C@@H]4CCN(C(=O)[C@@](C)(O)C(F)(F)F)C[C@@H]4C)CC3)o2)cc1 [Compound A30, (R)-3,3,3-Trifluoro-2-hydroxy-1-((3R,4R)-4-{1-[5-(4-methoxy-phenyl)-[1,3,4]oxadiazol-2-yl]-cyclopropyl}-3-methyl-piperidin-1-yl)-2-methyl-propan-1-one] | 1900 nM |  | 
